Laboratory results published in publication PMC2825274 (PLoS ONE, 2010).
Values after ≈ are worked out from the molar mass of the structure shown. Values joined by “and” are separate entries in the source; they are usually repeats but may differ in a detail not shown here. Identical values can stand only once. “Also recorded” adds a separate entry of the source. Like-named read-outs stand apart in the source and are kept apart here.

How the values were obtained:
[1] = test system: influenza A/California/04/09 (H1N1) (CA04); experiment: microbe, parasite or virus in culture; assay type: cell-based, influenza A virus; settings: for EC50: Influenza A virus, H1N1, MDCK, 72 h
[2] = test system: influenza A/California/05/09 (H1N1) (CA05); experiment: microbe, parasite or virus in culture; assay type: cell-based, influenza A virus; settings: for EC50: Influenza A virus, H1N1, MDCK, 72 h
[3] = test system: 2009 H1N1 influenza strains A/California/04/09 (CA04), A/California/05/09 (CA05) and A/California/10/09 (CA10); experiment: microbe, parasite or virus in culture; assay type: cell-based, influenza A virus; settings: for EC50: Influenza A virus, H1N1, MDCK
[4] = test system: A/New Caledonia/20/99 (H1N1) (NC20) susceptible; experiment: microbe, parasite or virus in culture; assay type: cell-based, influenza A virus

Q: Which results are given for `NC12CC3CC(CC(C3)C1)C2` [Amantadine]?
A: amantadine concentration with significant contribution to the synergy of the TCAD regimen [1]: 3.2 µg/mL; contribution to the total synergy of the TCAD regimen [1]: 39%; EC50 [1]: 85 µM and 16 µg/mL; amantadine concentration with significant contribution to the synergy of the TCAD regimen [2]: ≥ 0.1 µg/mL; contribution to the total synergy of the TCAD regimen [2]: 24%; EC50 [2]: 106 µM and 20 µg/mL; antiviral activity as a single agent [3]: no significant antiviral activity; fold reduction in susceptibility [3]: > 250 fold; fold reduction of single-agent activity [3]: 100 fold; EC50 [3]: 16 µg/mL to 20 µg/mL and 85 µM to 106 µM; EC50 ([4]; Influenza A virus, H1N1, MDCK): 0.22 µg/mL (≈ 1.45 µM)

Q: What does the source list for `CCC(CC)[C@H](NC(C)=O)[C@@H]1[C@H](O)[C@@H](C(=O)O)C[C@H]1N=C(N)N` [Peramivir]?
A: inhibition of virus-induced CPE as single agent [3]: concentration-dependent inhibition of cytopathic effect; TC50 (MDCK cells): >100 µg/mL

Q: Which EC50 [1] does the source give for `NC(=O)c1ncn([C@@H]2O[C@H](CO)[C@@H](O)[C@H]2O)n1` [Ribavirin] here?
A: 28 µM and 7 µg/mL

Q: What about the EC50 [2] of the same compound?
A: 23 µM and 5.6 µg/mL

Q: And the “inhibition of virus-induced CPE as single agent” value (“inhibition of virus-induced CPE” for short) [3]?
A: concentration-dependent inhibition of cytopathic effect

Q: And the EC50 ([4]; Influenza A virus, H1N1, MDCK)?
A: 3.1 µg/mL (≈ 12.7 µM)

Q: With `CC(N)C12CC3CC(CC(C3)C1)C2` (stereo not drawn) [Rimantadine, rimantadine] as the compound, how does the EC50 [1] read?
A: > 51 µM and > 11 µg/mL

Q: And the EC50 [2]?
A: > 55 µM and > 12 µg/mL

Q: What about the “inhibition of virus-induced CPE” value [3] of the same compound?
A: did not produce inhibition; also recorded: no activity

Q: What about the EC50 [3] of the same compound?
A: > 12 µg/mL and > 55 µM

Q: Which EC50 [1] does the source give for `CC(=O)N[C@H]1[C@H]([C@H](O)[C@H](O)CO)OC(C(=O)O)=C[C@@H]1N=C(N)N` [Zanamivir] here?
A: 350 nM and 0.12 µg/mL

Q: What about the EC50 [2] of the same compound?
A: 230 nM and 0.078 µg/mL

Q: And the “inhibition of virus-induced CPE” value [3]?
A: concentration-dependent inhibition of cytopathic effect

Q: What about the TC50 (MDCK cells; dog) of the same compound?
A: >100 µg/mL

Q: For Oseltamivir carboxylate, which “inhibition of virus-induced CPE” value [3] is on record?
A: concentration-dependent inhibition of cytopathic effect

Q: And the EC50 [4]?
A: 0.20 µg/mL
